Assays:
Test in all cases: relative viability (nuclei count vs DMSO), 5 days (fraction); higher = more cells survive
SK-LU-1 = system: SK-LU-1
Summary of the method: (§1)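 Dosing by pin tool came one day after lung cancer cell lines were seeded in 1536-well plates, using either one drug or a fixed anchor-drug dose plus five library-drug doses (not always all listed) in √10 steps. After 5 days, nuclei were counted on 4× images. Relative viability is treated-well nuclei count divided by vehicle-well nuclei count, and values are medians of duplicate plates.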

NCI-H460 = system: NCI-H460
Summary of the method: as §1

LU99A = system: LU99A
Summary of the method: as §1

NCI-H322M = system: NCI-H322M
Summary of the method: as §1

NCI-H2170 = system: NCI-H2170
Summary of the method: as §1

NCI-H441 = system: NCI-H441
Summary of the method: as §1

NCI-H1793 = system: NCI-H1793
Summary of the method: as §1

NCI-H2342 = system: NCI-H2342
Summary of the method: as §1

LOU-NH91 = system: LOU-NH91
Summary of the method: as §1

NCI-H2126 = system: NCI-H2126
Summary of the method: as §1

LCLC-97TM1 = system: LCLC-97TM1
Summary of the method: as §1

COCC1(CO)C(=O)C2CCN1CC2 (stereo not drawn) [PRIMA-1MET] + N=C(N)NC(=N)NCCc1ccccc1 [Phenformin] (partner 250 µM)
relative viability (SK-LU-1; first compound 0.2 µM): 0.545 | relative viability (SK-LU-1; first compound 0.6325 µM): 0.559 | relative viability (SK-LU-1; first compound 2 µM): 0.326 | relative viability (SK-LU-1; first compound 6.325 µM): 0.606 | relative viability (SK-LU-1; first compound 20 µM): 0.0941 | relative viability (NCI-H460; first compound 0.2 µM): 0.658 | relative viability (NCI-H460; first compound 0.6325 µM): 0.495 | relative viability (NCI-H460; first compound 2 µM): 0.481 | relative viability (NCI-H460; first compound 6.325 µM): 0.042 | relative viability (NCI-H460; first compound 20 µM): 0.0117 | relative viability (LU99A; first compound 0.2 µM): 0.646 | relative viability (LU99A; first compound 0.6325 µM): 0.736 | relative viability (LU99A; first compound 2 µM): 0.734 | relative viability (LU99A; first compound 6.325 µM): 0.831 | relative viability (LU99A; first compound 20 µM): 0.0482 | relative viability (NCI-H322M; first compound 0.2 µM): 0.869 | relative viability (NCI-H322M; first compound 0.6325 µM): 0.549 | relative viability (NCI-H322M; first compound 6.325 µM): 0.804 | relative viability (NCI-H322M; first compound 20 µM): 0.0578 | relative viability (NCI-H2170; first compound 0.2 µM): 0.418 | relative viability (NCI-H2170; first compound 0.6325 µM): 0.416 | relative viability (NCI-H2170; first compound 2 µM): 0.38 | relative viability (NCI-H2170; first compound 6.325 µM): 0.405 | relative viability (NCI-H2170; first compound 20 µM): 0.376 | relative viability (NCI-H441; first compound 0.2 µM): 0.872 | relative viability (NCI-H441; first compound 0.6325 µM): 0.762 | relative viability (NCI-H441; first compound 2 µM): 0.838 | relative viability (NCI-H441; first compound 6.325 µM): 0.657 | relative viability (NCI-H441; first compound 20 µM): 0.183 | relative viability (NCI-H1793; first compound 0.2 µM): 0.465 | relative viability (NCI-H1793; first compound 0.6325 µM): 0.32 | relative viability (NCI-H1793; first compound 6.325 µM): 0.444 | relative viability (NCI-H1793; first compound 20 µM): 0.326 | relative viability (NCI-H2342; first compound 0.2 µM): 0.58 | relative viability (NCI-H2342; first compound 0.6325 µM): 0.667 | relative viability (NCI-H2342; first compound 2 µM): 0.462 | relative viability (NCI-H2342; first compound 6.325 µM): 0.608 | relative viability (NCI-H2342; first compound 20 µM): 0.543 | relative viability (LOU-NH91; first compound 0.2 µM): 0.724 | relative viability (LOU-NH91; first compound 0.6325 µM): 0.667 | relative viability (LOU-NH91; first compound 2 µM): 0.554 | relative viability (LOU-NH91; first compound 6.325 µM): 0.712 | relative viability (LOU-NH91; first compound 20 µM): 0.392 | relative viability (NCI-H2126; first compound 0.2 µM): 0.568 | relative viability (NCI-H2126; first compound 0.6325 µM): 0.532 | relative viability (NCI-H2126; first compound 2 µM): 0.513 | relative viability (NCI-H2126; first compound 6.325 µM): 0.577 | relative viability (NCI-H2126; first compound 20 µM): 0.531 | relative viability (LCLC-97TM1; first compound 0.2 µM): 0.436 | relative viability (LCLC-97TM1; first compound 0.6325 µM): 0.437 | relative viability (LCLC-97TM1; first compound 2 µM): 0.484 | relative viability (LCLC-97TM1; first compound 6.325 µM): 0.448 | relative viability (LCLC-97TM1; first compound 20 µM): 0.347

— the supplement of paper PMC10307832
